Measured values from ChEMBL document CHEMBL1201862, “PubChem BioAssay data set” (2004).
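A five-concentration, 48-hour dose response in 96-well plates underlies each endpoint, interpolated linearly between surrounding concentrations. Here, GI50 denotes the concentration required for 50% inhibition of growth.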 Active and inactive are the calls of the source. No stated cut-off is given here; in the data, active = GI50 up to about 1.1 µM and inactive = higher.

Columns and labels:
Experiment in all cases: growth of human tumour cells (NCI), 48 h
786-0 = test system: 786-0
A498 = test system: A498
A549 = test system: A549
ACHN = test system: ACHN
BT-549 = test system: BT-549
CAKI-1 = test system: CAKI-1
CCRF-CEM = test system: CCRF-CEM
COLO 205 = test system: COLO 205
DU-145 = test system: DU-145
EKVX = test system: EKVX
HCT-116 = test system: HCT-116
HCT-15 = test system: HCT-15
HL-60 = test system: HL-60
HOP-62 = test system: HOP-62
HOP-92 = test system: HOP-92
HT-29 = test system: HT-29
Hs-578T = test system: Hs-578T
IGROV-1 = test system: IGROV-1
K562 = test system: K562
KM12 = test system: KM12
LOX IMVI = test system: LOX IMVI
M14 = test system: M14
MCF7 = test system: MCF7
MDA-MB-231 = test system: MDA-MB-231
MDA-MB-435 = test system: MDA-MB-435
MDA-N = test system: MDA-N
MOLT-4 = test system: MOLT-4
Malme-3M = test system: Malme-3M
NCI-H226 = test system: NCI-H226
NCI-H23 = test system: NCI-H23
NCI-H460 = test system: NCI-H460
NCI-H522 = test system: NCI-H522
NCI/ADR-RES = test system: NCI/ADR-RES
OVCAR-3 = test system: OVCAR-3
OVCAR-4 = test system: OVCAR-4
OVCAR-5 = test system: OVCAR-5
OVCAR-8 = test system: OVCAR-8
PC-3 = test system: PC-3
RPMI-8226 = test system: RPMI-8226
RXF 393 = test system: RXF 393
SF-268 = test system: SF-268
SF-295 = test system: SF-295
SF-539 = test system: SF-539
SK-MEL-28 = test system: SK-MEL-28
SK-MEL-2 = test system: SK-MEL-2
SK-MEL-5 = test system: SK-MEL-5
SK-OV-3 = test system: SK-OV-3
SN12C = test system: SN12C
SNB-19 = test system: SNB-19
SNB-75 = test system: SNB-75
SR = test system: SR
SW-620 = test system: SW-620
T47D = test system: T47D
TK-10 = test system: TK-10
U-251 = test system: U-251
UACC-257 = test system: UACC-257
UACC-62 = test system: UACC-62
UO-31 = test system: UO-31

In the case of `Cc1c(CCCl)c(N=[N+]=[N-])n2c(nc3ccccc32)c1C#N`, the GI50 (786-0) is reported as 601 nM (active), the GI50 (A498) is reported as 1640 nM (inactive) and the GI50 (A549) is reported as 2120 nM (inactive). For the same compound, the GI50 (ACHN) was 1220 nM (inactive), the GI50 (BT-549) was 867 nM (active) and the GI50 (CAKI-1) was 1390 nM (inactive). For the same compound, the GI50 (CCRF-CEM) was 236 nM (active), the GI50 (COLO 205) was 1070 nM (active) and the GI50 (DU-145) was 2240 nM (inactive). The GI50 (EKVX) was 1870 nM (inactive), the GI50 (HCT-116) was 498 nM (active) and the GI50 (HCT-15) was 1300 nM. For the same compound, the GI50 (HL-60) was 348 nM (active), the GI50 (HOP-62) was 2130 nM (inactive) and the GI50 (HOP-92) was 1250 nM (inactive). For the same compound, the GI50 (HT-29) was 1580 nM (inactive), the GI50 (Hs-578T) was 986 nM (active) and the GI50 (IGROV-1) was 1010 nM (active). The GI50 (K562) was 290 nM (active), the GI50 (KM12) was 1660 nM (inactive) and the GI50 (LOX IMVI) was 902 nM (active). For the same compound, the GI50 (M14) was 1250 nM (inactive), the GI50 (MCF7) was 470 nM (active) and the GI50 (MDA-MB-231) was 1420 nM (inactive). For the same compound, the GI50 (MDA-MB-435) was 1430 nM (inactive), the GI50 (MDA-N) was 1560 nM (inactive) and the GI50 (MOLT-4) was 249 nM (active). For the same compound, the GI50 (Malme-3M) was 1450 nM (inactive), the GI50 (NCI-H226) was 1820 nM (inactive) and the GI50 (NCI-H23) was 1410 nM (inactive). For the same compound, the GI50 (NCI-H460) was 1390 nM (inactive), the GI50 (NCI-H522) was 163 nM (active) and the GI50 (NCI/ADR-RES) was 1690 nM (inactive). The GI50 (OVCAR-3) was 1390 nM (inactive), the GI50 (OVCAR-4) was 1530 nM (inactive) and the GI50 (OVCAR-5) was 1940 nM (inactive). The GI50 (OVCAR-8) was 1700 nM (inactive), the GI50 (PC-3) was 1420 nM (inactive) and the GI50 (RPMI-8226) was 385 nM (active). The GI50 (RXF 393) was 1400 nM (inactive), the GI50 (SF-268) was 2220 nM (inactive) and the GI50 (SF-295) was 1670 nM (inactive). The GI50 (SF-539) was 1820 nM (inactive), the GI50 (SK-MEL-28) was 1580 nM (inactive) and the GI50 (SK-MEL-2) was 1480 nM (inactive). For the same compound, the GI50 (SK-MEL-5) was 491 nM (active), the GI50 (SK-OV-3) was 2110 nM (inactive) and the GI50 (SN12C) was 1710 nM (inactive). The GI50 (SNB-19) was 2770 nM (inactive), the GI50 (SNB-75) was 1460 nM (inactive) and the GI50 (SR) was 311 nM (active). The GI50 (SW-620) was 355 nM (active), the GI50 (T47D) was 839 nM (active) and the GI50 (TK-10) was 1520 nM (inactive). For the same compound, the GI50 (U-251) was 2170 nM (inactive), the GI50 (UACC-257) was 1600 nM (inactive) and the GI50 (UACC-62) was 1340 nM (inactive). For the same compound, the GI50 (UO-31) was 1650 nM (inactive).
